{"source": "patent US11406631B2", "about": "“Hydrazone derivatives for preventing or treating EBV-related cancers” (Universite de Bretagne Occidentale, priority 2018, dated 2022)", "key": {"[1]": {"system": "GAr-based inhibition of translation", "experiment": "Yeast assay (assays described in Lista et al.)", "type": "cell-based, Saccharomyces cerevisiae", "excerpt": "A yeast-based (Saccharomyces cerevisiae) assay that recapitulates all the aspects of the GAr-based inhibition of translation, including the GAr-length dependency, has been developed, that allowed understanding the mechanisms of GAr-mediated mRNA translation—suppression in cis, as well as the cellular factors involved (Lista et al. Biotechnol J 2015, 10, 1670-1681). This assay was successfully used to identify small molecular weight compounds that can stimulate EBNA1 expression both in yeast and mammalian cells and that relieve GAr-based limitation of antigen presentation (Voisset et al. Dis Model Mech 2014, 7, 435-444).\nCompounds 1a, 2a, 4a, 5a, 7a, 10a and 11a were also tested in the various assay described in Lista et al. (Nat Commun 2017, 8, 16043)."}, "quadruplex RNA F-EBNA1-T": {"system": "quadruplex RNA F-EBNA1-T", "experiment": "FRET-melting assay", "type": "binding, Epstein-Barr virus", "excerpt": "The FRET-melting assay is based on thermal denaturation of G4-ARN monitored by fluorescence due to the phenomenon of Förster Resonance Energy Transfer (FRET). This method uses quadruplex-forming RNA sequence dual-labeled with two different fluorophores: a donor (fluorescein, or FAM) and an acceptor (tetramethylrhodamine, or TAMRA). When RNA is folded into G-quadruplex (G4) structure, fluorescence of the donor fluorophore is weak due to strong energy transfer (FRET) to the neighboring acceptor fluorophore. Upon thermal denaturation, the quadruplex unfolds and the fluorophores are separated, leading to decrease of the FRET effect and increase of the fluorescence of the donor (see FIG. 2). By following the fluorescence of the donor as a function of temperature, a melting curve of the G-quadruplex RNA can be obtained, which allows determining the temperature of denaturation at which 50% of the quadruples is unfolded (T1, FIG. 3).\nThe FRET-melting assay allows assessing the affinity of small molecules (ligands) for the G4-RNA. The addition of a G4-ligand stabilizes the G-quadruplex structure and increases the denaturation temperature. The temperature of denaturation in the presence of ligands (T2) can be compared with that obtained in the absence of ligands (T1). The value of ΔTm (ΔTm=T2−T1) represents a measure of the affinity of the compounds of the invention (ligand). Generally, values of ΔTm>20° C. correspond to ligands of high affinity.\nThe dual-labeled oligoribonucleotide EBNA1 [5′-FAM-r(GGGGCAGGAGCAGGAGGA)-TAMRA-3′] (SEQ ID no 2) purified by reversed-phase HPLC was purchased from Eurogentec. The donor fluorophore was 6-carboxyfluorescein (FAM) and the acceptor fluorophore was 6-carboxytetramethylrhodamine (TAMRA).\nStock solutions of the ligands (2 mM in DMSO) were used for FRET-melting assay, unless otherwise stated, and were stored at −20° C. FRET-melting measurements are performed on 7900HT Fast Real-Time PCR System (Applied Biosystems) with Microamp Fast optical 96-well reaction plate (Applied Biosystems).\nPreparation of Oligonucleotides For FRET-melting assay, oligoribonucleotide F-EBNA1-T was dissolved in K^+10 buffer (10 mM lithium cacodylate buffer, pH 7.3, supplemented with 10 mM KCl and 90 mM LiCl).\nPrior to use, all oligonucleotides were pre-treated by heating at 95° C. for 5 min, then rapidly cooled to 4° C. to favor the intramolecular folding by kinetic trapping. Duplex-DNA ds26 (5′CAA-TCG-GAT-CGA-ATT-CGA-TCC-GAT-TG-3′) (SEQ ID no 3) was prepared by heating this self-complementary strand at 90° C. for 5 min in K^+10 buffer followed by a slow cooling over 6 h.\nFRET-melting assay is performed in 96-well plates on real time PCR apparatus 7900HT Fast Real-Time PCR System using the heating ramp as follow: 5 min at 25° C., then increase of 0.5° C. every minute until 95° C. Each experimental condition was tested in duplicated in a volume of 25 μL for each sample. The 96-well plates (Applied Biosystems) were prepared by aliquoting the annealed RNA (24 μL of 0.21 μM solution in K^+10 buffer) into each well, followed by 1 μL of ligand solution (25 μM in K^+10 buffer). For competition experiments, duplex competitors were added to 200 nM quadruplex sequences at final concentrations of 3.0 μM (15 eq) and 10.0 μM (50 eq), with a total reaction volume of 25 μL, with the labeled oligoribonucleotide (0.2 μM) and the ligand (1.0 μM). Measurements were made with excitation at 492 nm and detection at 516 nm. The change in the melting temperature in the presence of 1.0 μM putative ligand, ΔTm (1.0 μM), was calculated from at least two experiments by subtraction of the blank from the averaged melting temperature of each compound (1.0 μM).\nThe results are shown in FIG. 4 and in Table 2 below (higher ΔTm values indicate higher affinity of the compounds to G4-RNA structure of EBNA1)."}, "G4-RNA EBNA1": {"biological_target": "G4-RNA EBNA1", "experiment": "HT-G4-FID assay: Thiazole Orange displacement from G4-RNA", "type": "binding, Epstein-Barr virus", "experimental": "This assay is based on the displacement of a fluorescent indicator (Thiazole Orange, hereinafter TO) from a G4-RNA structure (RNA G-quadruplex of EBNA1) by a putative ligand such as the compounds of the invention (see FIG. 1). This displacement is quantified as % TO displacement. The percentage of TO displacement is calculated from the fluorescence intensity (F) in the presence of a putative ligand, using:\n[formula] where F0 is fluorescence intensity of the probe (TO) bound to RNA without added ligand. The percentage of displacement is then plotted as a function of the concentration of added ligand. The RNA affinity of putative ligands is evaluated using the concentration of a ligand required to decrease the fluorescence of the probe by 50% (noted DC50), which is determined graphically from non-linear fitting of the displacement curve. […] 2. Materials and Reagents\nThiazole Orange (TO) and cacodylic acid were purchased from Aldrich and used without further purification. The oligoribonucleotide EBNA1 [5′-r(GGGGCAGGAGCAGGAGGA)-3′] (SEQ ID no 1) purified by reversed-phase HPLC was purchased from Eurogentec.\nStock solutions of the ligands (2 mM in DMSO (dimethylsulfoxyde)) were used for G4-FID assay, unless otherwise stated, and were stored at −20° C. Stock solutions of TO (2 mM in DMSO) were used for G4-FID assay. Fluorescent probe powders and solutions were stored and used, protected from light and used as aliquots to avoid freeze-thaw cycles. HT-G4-FID measurements were performed on a FLUOstar Omega microplate reader (BMG Labtech) with 96-well Non-Binding Surface black with black bottom polystyrene microplates (Corning ref 3650).\nFor HT-G4-FID assay, the oligonucleotide was dissolved in K^+−100-buffer (10 mM lithium cacodylate, pH 7.3, 100 mM KCl, 1 mM EDTA, 1% DMSO). Oligonucleotide concentrations were determined on the basis of their absorbance at 260 nm. Prior to use, the oligonucleotide was pre-treated by heating at 95° C. for 5 min followed by a slow cooling to 25° C.\nEach G4-FID assay is performed in a 96-well microplates. […] The microplate is filled with (a) K^+−100 solution (qs for 200 μL) (b) 10 μL of a solution of pre-folded oligonucleotides (5 μM) and TO (10 μM-2 eq) and (c) an extemporaneously prepared 5 μM ligand solution in K^+−100 buffer (0 to 100 μL along the line of the microplate, i.e., from column […]: 0, 0.125, 0.25, 0.375, 0.5, 0.625, 0.75, 1.0, 1.25, 1.5, 2.0 and 2.5 μM) (see Largy et al., Anal Bioanal Chem 2011, 400, 34193427). After 5 min of orbital shaking at 500 rpm, fluorescence intensity is measured using the following experimental parameters: positioning delay: 0.5 s, 20 flashes per well, emission/excitation filters (nm): 485/520, gain adjusted at 80% of the fluorescence from the most fluorescent well (i.e., a well from column A).\nResults are shown in Table 1 below (lower DC50 values indicate higher affinity of compounds to the G4-RNA structure of EBNA1)."}, "[2]": {"system": "interaction between NCL and the G4s of EBNA1 mRNA", "settings": "earlier study, Lista et al. Nat Commun 2017; cited from earlier work"}}}
{"compound": "C[n+]1ccc(C=NNC(=O)c2cc(C(=O)NN=Cc3cc[n+](C)cc3)ncn2)cc1.[I-].[I-]", "note": "[Compound 4a, N′^4,N′^6-Bis[(1-methylpyridinium-4-yl)methylene]pyrimidine-4,6-dicarbohydrazide iodide]", "values": [{"measurement": "result in the yeast assay", "setting": "[1]", "result": "positive results"}]}
{"compound": "C[n+]1ccc(C=NNC(=O)c2cc(C(=O)NN=Cc3cc[n+](C)c4ccccc34)ncn2)c2ccccc21.[I-].[I-]", "note": "[Compound 5a, N′^4,N′^6-Bis[(1-methylquinolinium-4-yl)methylene]pyrimidine-4,6-dicarbohydrazide iodide]", "values": [{"measurement": "result in the yeast assay", "setting": "[1]", "result": "positive results"}]}
{"compound": "C[n+]1ccc(C=NNC(=O)c2ccc3ccc(C(=O)NN=Cc4cc[n+](C)cc4)nc3n2)cc1.[I-].[I-]", "note": "[Compound 7a, N′^2,N′^7-Bis[(1-methylpyridinium-4-yl)methylene]-1,8-naphthyridine-2,7-dicarbohydrazide iodide]", "values": [{"measurement": "result in the yeast assay", "setting": "[1]", "result": "positive results"}]}
{"compound": "C[n+]1ccc(C=NNC(=O)c2ccc3ccc4ccc(C(=O)NN=Cc5cc[n+](C)cc5)nc4c3n2)cc1.[I-].[I-]", "note": "[Compound 10a, N′^2,N′^9-Bis[(1-methylpyridinium-4-yl)methylene]-1,10-phenanthroline-2,9-dicarbohydrazide iodide]", "values": [{"measurement": "ΔTm, ligand + 3 μM ds26", "setting": "quadruplex RNA F-EBNA1-T; F-EBNA1-T 0.2 μM, ligand 1.0 μM, K+10 buffer, competitor DNA ds26 3 μM (15 eq)", "result": "15.0 ± 0.6", "unit": "°C"}, {"measurement": "ΔTm, ligand + 10 μM ds26", "setting": "quadruplex RNA F-EBNA1-T; F-EBNA1-T 0.2 μM, ligand 1.0 μM, K+10 buffer, competitor DNA ds26 10 μM (50 eq)", "result": "12.5 ± 1.5", "unit": "°C"}, {"measurement": "ΔTm, ligand alone", "setting": "quadruplex RNA F-EBNA1-T; F-EBNA1-T 0.2 μM, ligand 1.0 μM, K+10 buffer, no competitor", "result": "15.7 ± 0.6", "unit": "°C"}, {"measurement": "affinity for the G-quadruplex structure of EBNA1 (in words, FRET-melting data)", "setting": "quadruplex RNA F-EBNA1-T; conclusion from Table 2", "result": "particularly high affinity"}, {"measurement": "result in the yeast assay", "setting": "[1]", "result": "positive results"}, {"measurement": "DC50", "setting": "G4-RNA EBNA1; K+-100 buffer, pH 7.3, triplicate assays", "result": "320 ± 20", "unit": "nM"}, {"measurement": "affinity for the G-quadruplex structure of EBNA1 (in words, FID data)", "setting": "G4-RNA EBNA1; conclusion from Table 1", "result": "particularly high affinity"}]}
{"compound": "C[n+]1cc(NC(=O)c2ccc3ccc4ccc(C(=O)Nc5cc6ccccc6[n+](C)c5)nc4c3n2)cc2ccccc21", "note": "[PhenDC3]", "values": [{"measurement": "NCL-EBNA1 mRNA G-quadruplex interaction by PLA", "setting": "[2]", "result": "prevented"}]}
